Experimental data from patent US6462037B1, “1,4-benzodiazepin-2-ones useful as HIV reverse transcriptase inhibitors” (Bristol-Myers Squibb Pharma Company, priority 1999, dated 2002).
In brackets after ≈: the same amount, converted by molar mass.

Columns and labels:
[1] = test system: HIV-1 (RF); assay: HIV RNA assay: microplate based compound evaluation in HIV-1 infected MT-2 cells; type: cell-based; conditions: Human immunodeficiency virus 1, MT2, 72 h; HIV-1 (RF) infected MT-2 cells, 3 days of culture; virus inoculum standardised to this value; read-out: IC90 value (concentration of compound required to reduce the HIV RNA level by 90%)
Procedure: MT-2 and MT-4 cells were maintained in RPMI 1640 supplemented with 5% fetal calf serum (FCS) for MT-2 cells or 10% FCS for MT-4 cells, 2 mM L-glutamine and 50 μg/mL gentamycin, all from Gibco. HIV-1 RF was propagated in MT-4 cells in the same medium. Virus stocks were prepared approximately 10 days after acute infection of MT-4 cells and stored as aliquots at −70° C. Infectious titers of HIV-1 (RF) stocks were 1-3×10^7 PFU (plaque forming units)/mL as measured by plaque assay on MT-2 cells (see below). Each aliquot of virus stock used for infection was thawed only once.
For evaluation of antiviral efficacy, cells to be infected were subcultured one day prior to infection. […]
Cell lysates or purified RNA in 3 M or 5 M GED were mixed with 5 M GED and capture probe to a final guanidinium isothiocyanate concentration of 3 M and a final biotin oligonucleotide concentration of 30 nM. […] Immobilized alkaline phosphatase activity was detected by addition of 100 μL of 0.2 mM 4-methylumbelliferyl phosphate (MUBP, JBL Scientific) in buffer δ (2.5 M diethanolamine pH 8.9 (JBL Scientific), 10 mM MgCl2, 5 mM zinc acetate dihydrate and 5 mM N-hydroxyethyl-ethylene-diamine-triacetic acid). […] Fluorescence at […] was measured using a microplate fluorometer (Dynateck) exciting at […]. […]

Structure (SMILES) | IC90 [1] | melting point
Nc1ccn([C@H]2CC[C@@H](CO)O2)c(=O)n1 [ddC, 2′,3′-dideoxycytidine] | 0.2 µg/mL (≈ 0.947 µM) | –
O=C1C=N[C@](C#CC2CC2)(C(F)(F)F)c2cc(Cl)ccc2N1 [compound 174, 7-Chloro-5(S)-(cyclopropylethynyl)-1,5-dihydro-5-(trifluoromethyl)-1,4-benzodiazepin-2-one] | – | 104 to 105 °C
CC(C)=CCN1CC(=O)Nc2ccc(Cl)cc2C1C(F)(F)F (stereo not shown) [compound 101, 7-Chloro-4-(3-methyl-2-butenyl)-1,5-dihydro-5-(trifluoromethyl)-1,4-benzodiazepin-2-one] | – | 120 to 125 °C
O=C1CN(Cc2cccs2)C(C(F)(F)F)c2cc(Cl)ccc2N1 (stereo not shown) [compound 122, 7-Chloro-4-(2-thienylmethyl)-1,5-dihydro-5-(trifluoromethyl)-1,4-benzodiazepin-2-one] | – | 105 to 107 °C
